Data reported in US20250082633A1, “COMPOUNDS AND METHODS FOR MODULATING SPLICING” (REMIX THERAPEUTICS INC., priority 2021, published 2025).
Where two headings read alike, the source gives them in different places.

What was measured:
Assay type in all cases: cell-based
HTT mRNA = assay: RT-qPCR splicing assay, HTT canonical (CJ) and alternative (AJ) junction mRNA; details: Homo sapiens; for IC50: read-out: HTT CJ IC50; for AC50: increase in alternative junction mRNA, read-out: HTT AJ AC50
Protocol: (§1) Compounds described herein were used to modulate RNA transcript abundance in cells. The expression of a target mRNA was measured by detecting the formation of an exon-exon junction in the canonical transcript (CJ). A compound mediated exon-inclusion event was detected by observing an increase in formation of a new junction with an alternative exon (AJ). Real-time qPCR assays were used to detect these splicing switches and interrogate the potency of various compounds towards different target genes. A high-throughput real time quantitative PCR (RT-qPCR) assay was developed to measure these two isoforms of the mRNA (CJ and AJ) for exemplary genes, such as HTT, SMN2, and MYB, together with a control housekeeping gene, GAPDH or GUSB or PPIA, used for normalization. Briefly, the A673 or K562 cell line was treated with various compounds described herein (e.g., compounds of Formula (I)). After treatment, the levels of the HTT, MYB, or SMN2 mRNA targets were determined from each sample of cell lysate by cDNA synthesis followed by qPCR.
(§2) • Cells-to-CT 1-step kit: ThermoFisher A25602, Cells-to-CT lysis reagent: ThermoFisher 4391851C, TaqMan™ Fast Virus 1-Step Master Mix: ThermoFisher 4444436 • GAPDH: VIC-PL, ThermoFisher 4326317E (Assay: Hs99999905_m1)—used for K562/suspension cell lines • GUSB: VIC-PL, ThermoFisher 4326320E (Assay: Hs99999908_m1)—used for K562/suspension cell lines • PPIA: VIC-PL, ThermoFisher 4326316E (Assay: Hs99999904_m1)—used for A673/adherent cell lines
(§3) The A673 cell line was cultured in DMEM with 10% FBS. Cells were diluted with full growth media and plated in a 96-well plate (15,000 cells in 100 ul media per well). The plate was incubated at 37° C. with 5% CO2 for 24 hours to allow cells to adhere. An 11-point 3-fold serial dilution of the compounds was made in DMSO then diluted in media in an intermediate plate. Compounds were transferred from the intermediate plate to the cell plate with the top dose at a final concentration of 10 uM in the well. Final DMSO concentration was kept at or below 0.25%. The cell plate was returned to the incubator at 37° C. with 5% CO2 for an additional 24 hours.
(§4) The K562 cell line was cultured in IMDM with 10% FBS. For K562, cells were diluted with full growth media and plated in either a 96-well plate (50,000 cells in 50 uL media per well) or a 384-well plate (8,000-40,000 cells in 45 uL media per well). An 11-point 3-fold serial dilution of the compounds were made in DMSO then diluted in media in an intermediate plate. Compound was transferred from the intermediate plate to the cell plate with the top dose at a final concentration of 10 uM in the well. Final DMSO concentration was kept at or below 0.25%. Final volume was 100 uL for 96-well plate and 50 uL for 384-well plate. The cell plate was then placed in an incubator at 37° C. with 5% CO2 for 24 hours.
(§5) The cells were then gently washed with 50 uL-100 uL cold PBS before proceeding to addition of lysis buffer. 30 uL-50 μL of room temperature lysis buffer with DNAse I (and optionally RNAsin) was added to each well. Cells were shaken/mixed thoroughly at room temperature for 5-10 minutes for lysis to take place and then 3 uL-5 μL of room temperature stop solution was added and wells were shaken/mixed again. After 2-5 minutes, the cell lysate plate was transferred to ice for RT-qPCR reaction setup. The lysates could also be frozen at −80° C. for later use.
(§6) In some cases, a direct lysis buffer was used. An appropriate volume of 3× lysis buffer (10 mM Tris, 150 mM NaCl, 1.5%-2.5% Igepal and 0.1-1 U/uL RNAsin, pH 7.4) was directly added to either K562 or A673 cells in media and mixed by pipetting 3 times. The plates were then incubated at room temperature with shaking/rocking for 20-50 minutes to allow for lysis to take place. After this time, the cell lysate plate was transferred to ice to set up for the RT-qPCR reactions. The lysates could also be frozen at −80° C. for later use. […]

Target C = assay: RT-qPCR splicing assay, gene panel, Target C canonical junction (CJ) mRNA; details: Homo sapiens; decrease in CJ mRNA levels; larger panel of genes; Table 3; read-out: Target C CJ IC50
Protocol: as §1, §3, §4, §5
(§7) In some cases, a direct lysis buffer was used. An appropriate volume of 3× lysis buffer (10 mM Tris, 150 mM NaCl, 1.5%-2.5% Igepal and 0.1-1 U/uL RNAsin, pH 7.4) was directly added to either K562 or A673 cells in media and mixed by pipetting 3 times. The plates were then incubated at room temperature with shaking/rocking for 20-50 minutes to allow for lysis to take place. After this time, the cell lysate plate was transferred to ice to set up for the RT-qPCR reactions. The lysates could also be frozen at −80° C. for later use.
(§8) To set up 10 uL RT-qPCR reactions, cell lysates were transferred to 384-well qPCR plates containing the master mix according to the table below. The plates were sealed, gently vortexed, and spun down before the run. The volumes were adjusted accordingly in some instances where the reaction was carried in 20 μL. The table below summarizes the components of the RT-qPCR reactions:
(§9) The RT-qPCR reaction was performed using a QuantStudio (ThermoFisher) under the following fast cycling conditions. […]

MYB mRNA = assay: RT-qPCR splicing assay, MYB canonical (CJ) and alternative (AJ) junction mRNA; details: Homo sapiens; for IC50: read-out: MYB CJ IC50; for AC50: increase in alternative junction mRNA, read-out: MYB AJ AC50
Protocol: as §1, §2, §3, §4, §5, §6

K562 cells = assay: Cell Titer Glo 2.0 cell viability assay; details: Homo sapiens, 500 cells/well, 72 hours
Protocol: Compounds described herein were screened for toxicity in K562 (human chronic myelogenous leukemia) and SH-SY5Y (human neuroblastoma) cells using a Cell Titer Glo 2.0 assay. • Promega CellTiter-Glo® 2.0 Cell Viability Assay (cat #G9241) • Corning 384-well TC-treated microplates (cat #3570) Cells were plated at 500 cells/well (K562 cells) in 45 μL of IMDM supplemented with 10% FBS in a 384-well opaque plate. Wells containing only medium were used as a blank control. Test compounds (e.g., compounds of Formula (I), (II), or (III)) were first serially diluted in DMSO then diluted 1:100 with IMDM+10% FBS. The final concentration of DMSO was 0.1% in each well. The cells were incubated for 72 hours at 37° C. and 5% CO2 before assaying with Cell Titer Glo 2.0 reagent.

SMN2 mRNA = assay: RT-qPCR splicing assay, gene panel, SMN2 canonical junction (CJ) mRNA; details: Homo sapiens; decrease in CJ mRNA levels; larger panel of genes; Table 3; read-out: SMN2 CJ IC50
Protocol: as §1, §3, §4, §5, §7, §8, §9

[1] = decrease in CJ mRNA levels, larger panel of genes, Table 3
[2] = decrease in canonical junction mRNA, A673 or K562 cells, 24 hours treatment, Table 2
[3] = A673 or K562 cells, 24 hours treatment, Table 2

Row | IC50 (HTT mRNA; [1]) [nM] | IC50 (HTT mRNA; [2]) [nM] | IC50 (Target C) [nM] | IC50 (MYB mRNA; [1]) [nM] | IC50 (MYB mRNA; [2]) [nM] | GI50 (K562 cells) [nM] | IC50 (SMN2 mRNA) [nM] | SMILES | AC50 (HTT mRNA; [3]) [nM] | AC50 (MYB mRNA; [3]) [nM]
1 | < 100 | < 100 | 100 to 1000 | 100 to 1000 | 100 to 1000 | 100 to 1000 |  | Cc1cn2nc(-c3cc(F)c4nn([C@@H]5CCN(C)C6(CC6)C5)cc4c3)cc(C)c2n1 [Compound 176, 6-[7-fluoro-2-[(7R)-4-methyl-4-azaspiro[2.5]octan-7-yl]indazol-5-yl]-2,8-dimethyl-imidazo[1,2-b]pyridazine] | < 100 | 1000 to 10000
2 | > 10000 | > 10000 | > 10000 | > 10000 | > 10000 |  | 1000 to 10000 | Cc1cn2nc(-c3cc(C)c4nn(C5CCNC6(CC6)C5)cc4n3)cc(C)c2n1 (stereo not drawn) [Compound 208, 2-(4-azaspiro[2.5]octan-7-yl)-5-(2,8-dimethylimidazo[1,2-b]pyridazin-6-yl)-7-methyl-pyrazolo[4,3-b]pyridine] | > 10000 | > 10000
3 | 100 to 1000 | 100 to 1000 | 1000 to 10000 | 1000 to 10000 | 1000 to 10000 | 1000 to 10000 | 100 to 1000 | Cc1cn2nc(-c3cc(F)c4nn(C5CCNC6(CC6)C5)cc4c3)cc2c(C)n1 (stereo in doubt) [Compound 205, 2-[2-[(7S)-4-azaspiro[2.5]octan-7-yl]-7-fluoro-indazol-5-yl]-4,6-dimethyl-pyrazolo[1,5-a]pyrazine] | 100 to 1000 | 100 to 1000
4 | < 100 | < 100 | < 100 | 100 to 1000 | 100 to 1000 | 100 to 1000 | < 100 | CCN1CCC(n2cc3cc(-c4cc(C)c5nc(C)cn5n4)cc(F)c3n2)CC12CCC2 (stereo not drawn) [Compound 198, 6-[2-(5-ethyl-5-azaspiro[3.5]nonan-8-yl)-7-fluoro-indazol-5-yl]-2,8-dimethyl-imidazo[1,2-b]pyridazine] | < 100 | 100 to 1000
5 | 100 to 1000 | 100 to 1000 | 1000 to 10000 | 1000 to 10000 | 1000 to 10000 | 1000 to 10000 | 100 to 1000 | Cc1cn2nc(-c3cc(F)c4nn([C@@H]5CCN(C)C[C@H]5F)cc4c3)cc(C)c2n1 [Compound 197, 6-(7-fluoro-2-((3R,4R)-3-fluoro-1-methylpiperidin-4-yl)-2H-indazol-5-yl)-2,8-dimethylimidazo[1,2-b]pyridazine] | 100 to 1000 | 1000 to 10000
6 | 100 to 1000 | 100 to 1000 | 1000 to 10000 | 1000 to 10000 | 1000 to 10000 | 1000 to 10000 | 100 to 1000 | Cc1cn2nc(-c3ccc4nn(C5CCNC6(CC6)C5)cc4n3)cc(C)c2n1 (stereo not drawn) [Compound 201, 6-[2-(4-azaspiro[2.5]octan-7-yl)pyrazolo[4,3-b]pyridine-5-yl]-2,8-dimethyl-imidazo[1,2-b]pyridazine] | 1000 to 10000 | 1000 to 10000
7 | 100 to 1000 | 100 to 1000 | 100 to 1000 | 1000 to 10000 | 1000 to 10000 | 1000 to 10000 | 100 to 1000 | Cc1cn2nc(-c3cc(F)c4nn(C5CCNC6(CC6)C5)cc4c3)cc2c(C)n1 (stereo not drawn) [Compound 204, 2-[2-(4-azaspiro[2.5]octan-7-yl)-7-fluoro-indazol-5-yl]-4,6-dimethyl-pyrazolo[1,5-a]pyrazine] | 100 to 1000 | 1000 to 10000

The remaining lines, values behind:

Row | SMILES | IC50 (HTT mRNA; [1]) [nM] | IC50 (HTT mRNA; [2]) [nM] | IC50 (Target C) [nM] | IC50 (MYB mRNA; [1]) [nM] | IC50 (MYB mRNA; [2]) [nM] | GI50 (K562 cells) [nM] | IC50 (SMN2 mRNA) [nM] | AC50 (HTT mRNA; [3]) [nM] | AC50 (MYB mRNA; [3]) [nM]
8 | Cc1cn2nc(-c3cc(F)c4nn([C@H]5CCN(C)C6(CC6)C5)cc4c3)cc(C)c2n1 [Compound 175, 6-[7-fluoro-2-[(7S)-4-methyl-4-azaspiro[2.5]octan-7-yl]indazol-5-yl]-2,8-dimethyl-imidazo[1,2-b]pyridazine] | < 100 | < 100 | < 100 | 100 to 1000 | 100 to 1000 | 100 to 1000 |  | < 100 | < 100
9 | Cc1cn2nc(-c3cc(F)c4nn(C5CCN(C(C)(C)C)CC5)cc4c3)cc(C)c2n1 [Compound 207, 2-(1-tert-butylpiperidin-4-yl)-5-{2,8-dimethylimidazo[1,2-b]pyridazin-6-yl}-7-fluoroindazole] | 100 to 1000 | 100 to 1000 | 1000 to 10000 | 100 to 1000 | 100 to 1000 |  | < 100 | 100 to 1000 | 100 to 1000
10 | Cc1cn2nc(-c3nc4cn(C5CCNCC5)nc4c(=O)[nH]3)cc(C)c2n1 [Compound 211, 5-(2,8-dimethylimidazo[1,2-b]pyridazin-6-yl)-2-(4-piperidyl)-6H-pyrazolo[4,3-d]pyrimidin-7-one] | < 100 | < 100 |  | 100 to 1000 | 100 to 1000 |  | < 100 | 100 to 1000 | 100 to 1000
11 | Cc1cn2nc(-c3cc(F)c4nn([C@H]5CCN(C)C[C@@H]5F)cc4c3)cc(C)c2n1 [Compound 196, 6-[7-fluoro-2-[(3S,4S)-3-fluoro-1-methyl-4-piperidyl]indazol-5-yl]-2,8-dimethyl-imidazo[1,2-b]pyridazine] | 1000 to 10000 | 1000 to 10000 | > 10000 | > 10000 | > 10000 | > 10000 | 100 to 1000 | 1000 to 10000 | 1000 to 10000
